From PMC8373237 (Antimicrobial Agents and Chemotherapy, 2021)
In brackets after ≈: the same amount, converted by molar mass. Where two headings read alike, the source gives them in different places. Marks after values point to notes of the source that are not given here. Square brackets hold non-standard residues; d marks the D form. Peptide text beside a SMILES is read from it. Nphe = O=C(O)CNCc1ccccc1; NPrGly = CCCNCC(=O)O; Sar = CNCC(=O)O

Key:
Ssa-Esc T3SS, EPEC/EHEC [1] = conditions: culture-based secretion assay; ref [103]; cited from earlier work
[2] = test system: Salmonella enterica Typhimurium SPI-1 T3SS; conditions: cited from earlier work
[3] = test system: Yersinia pseudotuberculosis Ysc T3SS; conditions: cited from earlier work
Ssa-Esc T3SS, EPEC/EHEC [4] = conditions: biochemical assay, cited from earlier work
[5] = test system: P. aeruginosa PA103 T3SS (ExoU secretion); type: cell-based, Pseudomonas aeruginosa
Kinetic solubility = type: physicochemical
Protocol: […] Then, […] of 15 mM stock compound was added to make a solution of 120 μM final concentration with 0.8% DMSO. The solution was shaken at 37°C for ∼2 h. The solution was passed over a 0.7- μM glass fiber filter. Then, the solution was diluted 1:4 in acetonitrile to crash out any proteins. The solution was centrifuged at 500 × g for 10 min. Avoiding the pellet, 10 μl of supernatant was added to a fresh plate with 90 μl of acetonitrile. The final dilution is 40 times lower. Next, 10 μl of 40× dilution of solution was injected on the Orbi-trap. A 1 μM standard was used for the ratiometric comparison, and the assay was done in triplicate.

[6] = test system: Yersinia pseudotuberculosis Ysc T3SS; conditions: cited from earlier work; for IC50: culture-based secretion assay
[7] = test system: Pseudomonas aeruginosa Psc T3SS; conditions: culture-based secretion assay, cited from earlier work
[8] = test system: Chlamydiales T3SS, Chlamydia; conditions: cell-based infection assay, cited from earlier work; for MIC, Chlamydia: ref [67]
[9] = test system: Salmonella enterica Typhimurium SPI-1 T3SS; conditions: cited from earlier work; remark: listed apart in the source
[10] = test system: Y. pseudotuberculosis twin arginine translocation (Tat) system; type: cell-based, Yersinia pseudotuberculosis; conditions: culture optical density, 4 and 6 h
[11] = test system: Pseudomonas aeruginosa Psc T3SS; conditions: cited from earlier work; for lowest known inhibitory concentration (∼), PA: cell-based infection assay
[12] = test system: C. trachomatis serovar L2 in HeLa cells; experiment: Chlamydia infection of HeLa cells (primary and secondary infection); type: cell-based, Chlamydia trachomatis; set-up: key to lowest known inhibitory concentration (∼), cell-based infection assay, Chlamydia: NE: No effect observed
Protocol: Primary infections. HeLa cell monolayers were infected with C. trachomatis serovar L2 at a multiplicity of infection (MOI) of 1.0 in the presence of one of the following compounds at 9 μM: DMSO, 4EpDN, or 4EpDN 2Sar. Cells were incubated for 24 h in the presence of the above-listed compounds at 37°C and then fixed with 4% paraformaldehyde (PFA). Cells were stained for IncA (Chlamydia inclusion membrane marker), DNA (with DAPI), and MOMP (Chlamydia major outer membrane protein) simultaneously. This method of staining allows visualization of the inclusion independent of MOMP synthesis or transport. The percentage of cells infected (i.e., stained positively for the listed Chlamydia markers) in the presence of the compounds was quantified using confocal microscopy. Quantifications of inclusion take into account both DAPI staining and indirect immunofluoresence with an antibody to MOMP. Ten randomly selected fields of view were measured per experiment. The data represent three biological replicates.
Secondary infections. HeLa cell monolayers were infected with C. trachomatis serovar L2 at an MOI of 1.0 in the presence of one of the following compounds at 9 μM: DMSO, 4EpDN, or 4EpDN 2Sar. Cells were incubated for 48 h in the presence of the above-listed compounds at 37°C. Infected cells were then lysed, and the lysate was applied to fresh HeLa monolayers to enumerate infectious particles. These secondary infections were fixed in 4% PFA at 24 hpi and were stained against MOMP and DNA. The infectious units per ml (IFU/ml) were calculated by averaging the number of infected cells in each of 10 randomly selected fields of view at ×40 magnification on a confocal microscope and multiplying this by the appropriate dilution and area factors. The data represent four biological replicates.

[13] = test system: Y. enterocolitica Ysa T3SS (YspF secretion); type: cell-based, Yersinia enterocolitica
P. aeruginosa (PAO1) = type: cell-based, Pseudomonas aeruginosa
Y. pseudotuberculosis = type: cell-based, Yersinia pseudotuberculosis; conditions: 2xYT, 9-120 µM, 12 h
[14] = test system: Salmonella enterica Typhimurium SPI-1 T3SS (SipA, SipC secretion); type: cell-based
[15] = test system: Salmonella flagellar T3SS (FliC, FliD secretion); type: cell-based, Salmonella enterica Typhimurium; set-up: key to Fla fliC (Table 2): NE: No effect observed
[16] = test system: Hrc1 T3SS, Pseudomonas syringae; conditions: biochemical assay, cited from earlier work; for lowest known inhibitory concentration (∼), hrpA: ref [108]
[17] = test system: Yersinia pseudotuberculosis Ysc T3SS; conditions: cited from earlier work; remark: listed apart in the source
[18] = read-out: IC50, inhibition of secretion of T3SS effector ExoU

C/C=C\C=C\[C@@H]1O[C@](O)([C@H](CC)C(=O)NC/C=C/C=C(\C)[C@@H](OC)[C@@H](C)[C@@H]2O[C@H](/C=C/C=C/C=C(\C)C(=O)c3c(O)ccn(C)c3=O)[C@H](O)[C@@H]2O)[C@H](O)[C@H](O)C1(C)C [Aurodox]
IC50, EspABCD secretion (Ssa-Esc T3SS, EPEC/EHEC [1]): 0.5 μg/ml EspABCD^b

O=C/C=C/c1ccccc1 [Cinnamaldehyde]
lowest known inhibitory concentration (∼), SPI-1, SipAB ([2]; footnotes c and e: cell-based infection assay, SipAB biochemical assay, ref [106]): ∼100^c SipAB^e μM

C=CCc1ccc(Oc2cc(CC=C)cc(O)c2O)cc1 [Obovatol]
IC50 ([2]; cell-based infection assay, ref [89]): 19.8 µM

C/C=C(\C)C(O)C(C)/C=C(C)/C=C/C/C(C)=C/Cc1[nH]c(OC)cc(=O)c1C (stereo not drawn) [Mer-A 2026B]
lowest known inhibitory concentration (∼), YopM translocation [3]: ∼36; ∼9 YopM^f μM

O=C(N/N=C/c1ccc(O)cc1O)c1ccc([N+](=O)[O-])cc1 [ME0055]
lowest known inhibitory concentration (∼), LEE genes (Ssa-Esc T3SS, EPEC/EHEC [4]; ref [76]): ∼20 LEE genes^e μM

CCCN1CC(=O)N(Cc2ccccc2)CC(=O)N[C@H](CC(C)C)C(=O)N[C@@H]([C@@H](C)CC)C(=O)N[C@@H](CC(C)C)C(=O)N[C@H](Cc2ccccc2)C1=O [1EpDN, EpD1,2N] (cyclo(IL[dF][NPrGly][Nphe][dL]))
IC50 ([5]; read-out: IC50 (Table S1)): 8.2 µM | IC50 [5, 18]: ~8 µM | solubility (Kinetic solubility): 14 to 17 µM (≈ 10.3 to 12.5 µg/mL) | IC50 ([6]; ref [22], read-out: IC50, YopE secretion): 14.3 µM | IC50 ([7]; ref [22], read-out: IC50, ExoU secretion): 8.2 µM

(-)-Hopeaphenol
lowest known inhibitory concentration (∼), Chlamydia ([8]; ref [97]): ∼25^c μM | IC50 ([6]; ref [97], read-out: IC50, YopD secretion): 3.3 µM | lowest known inhibitory concentration (∼), ExoS secretion ([7]; ref [97]): ∼50 ExoS^b μM

CCOc1cc(CN2N=C(C(=O)Nc3ccc(F)cc3F)SCC2=O)ccc1O [Fluorothiazinon]
lowest known inhibitory concentration (∼), Chlamydia ([8]; ref [93]–[96]): ∼25^c μM | lowest known inhibitory concentration (∼), ExoT, ExoY secretion ([7]; ref [93]–[96]): ∼20 μg/ml ExoT^b ExoY^b | lowest known inhibitory concentration (∼), SipA ([9]; footnote printed as a, ref [93]–[96]): ~50 µM

CC(Oc1ccc(Cl)cc1Cl)C(=O)NCc1ccc2c(c1)OCO2 (stereo not drawn) [MBX1641]
lowest known inhibitory concentration (∼), Chlamydia ([8]; ref [65]): ∼10^c μM | IC50 ([7]; ref [65], read-out: IC50, ExoS secretion): 10 µM

O=C(N/N=C/c1c(O)ccc2ccccc12)c1ccc(Cl)cc1 [INP0400]
lowest known inhibitory concentration (∼), Chlamydia ([8]; ref [70]): ∼20^c μM

O=C(N/N=C/c1cc(Br)cc(Br)c1O)c1cccnc1 [ME0052]
lowest known inhibitory concentration (∼), Yops secretion [6]: ∼20 Yops^b μM

O=C1C=CC(=O)N1c1ccccc1 [N-phenylmaleimide]
growth of SufI-β-lactamase Tat reporter bacteria in penicillin G / Tat inhibition, in words [10]: strongly reduced growth of bacteria

Cc1c(C)c2c(c(C)c1O)CC[C@@](C)(CCC[C@H](C)CCC[C@H](C)CCCC(C)C)O2 [α-tocopherol]
lowest known inhibitory concentration (∼), PA, ExoY ([11]; footnotes c and f: cell-based infection assay, ExoY translocation assay, ref [105]): ∼10^c ExoY^f μM

CCCN1CC(=O)N(C)CC(=O)N[C@@H](CC(C)C)C(=O)N[C@@H]([C@@H](C)CC)C(=O)N[C@H](CC(C)C)C(=O)N[C@H](Cc2ccccc2)C1=O [4EpDN 2Sar, 4-EpD1,2N 2Sar] (cyclo(I[dL][dF][NPrGly][Sar]L))
inhibition of formation of infectious progeny ([12]; 9 μM, EBs collected at 48 hpi, fresh monolayers 24 h): not | decrease of primary inclusion formation ([12]; 9 μM, HeLa cells, 24 hpi): not | lowest known inhibitory concentration (∼), cell-based infection assay, Chlamydia ([12]; Table 2, Chlamydiales): NE^d | T3SS inhibitory activity (ExoU secretion), in words [5]: significantly reduced activity | inhibition of ExoU secretion ([5]; 9 µM): no effect | inhibition of ExoU secretion ([5]; 60 µM): no effect | IC50 ([5]; read-out: IC50 (Table S1)): ~140 µM | IC50 [5, 18]: 140 µM | solubility (Kinetic solubility; DMEM (no antibiotics)): 61 µM (≈ 40.1 µg/mL) | solubility (Kinetic solubility; M9): 61 µM (≈ 40.1 µg/mL) | secretion of YspF, in words [13]: did not affect its secretion | bacterial viability in broth culture (P. aeruginosa (PAO1)): did not affect bacterial viability | bacterial viability in broth culture (Y. pseudotuberculosis): did not affect bacterial viability | concentrations at which inhibition of SipC and SipA secretion was seen [14]: greater than 30 μM | lowest known inhibitory concentration (∼), SipAC secretion [14]: ∼30 SipAC^b μM | Fla fliC (Table 2) [15]: NE^d | effect on FliC secretion, in words [15]: no significant effect | effect on FliD secretion, in words [15]: no significant effect

CCC(Oc1ncc(Cl)cc1Cl)C(=O)NCc1ccc2sccc2c1 (stereo not drawn) [MBX2401]
IC50 ([7]; ref [44], read-out: IC50, ExoS secretion): 1.2 µM

O=c1cc(-c2ccccc2)oc2cc(O)c(O)c(O)c12 [Baicalein]
IC50 ([8]; ref [84], [85]): 500 µM | IC50 ([9]; culture-based secretion assay, ref [84], [85], read-out: IC50, SopE2 secretion): 3.6 µM

Cc1cc(Cl)cc(/C=N/NC(=O)c2ccc(O)cc2O)c1O [INP0341]
lowest known inhibitory concentration (∼), PA ([11]; ref [68], [70]): ∼80^c μM | lowest known inhibitory concentration (∼), Chlamydia ([8]; ref [68], [70]): ∼20^c μM

O=C(N/N=C/c1cc(Br)cc(Br)c1O)c1ccc([N+](=O)[O-])cc1 [INP0007]
lowest known inhibitory concentration (∼), YopE secretion [6]: ∼50 YopE^b μM | lowest known inhibitory concentration (∼), SipAC secretion ([9]; culture-based secretion assay, ref [64], [72]): ∼100 SipAC^b μM

COCCn1c2c([n+](Cc3cnccn3)c1C)C(=O)c1ccccc1C2=O [Sepantronium bromide (YM155), Sepantronium bromide]
lowest known inhibitory concentration (∼), SseK1/SseK2, NleB (Ssa-Esc T3SS, EPEC/EHEC [4]; ref [110]): ∼2 SseK1/SseK2^e, NleB^e μM

O=C(O)c1ccc(O)cc1 [4-Hydroxybenozic acid]
lowest known inhibitory concentration (∼), hrpA [16]: ∼2.5 mM hrpA^e

O=C(N/N=C/c1ccc(O)c(O)c1O)c1ccccc1 [INP0401]
lowest known inhibitory concentration (∼), hrp ([16]; ref [78]): ∼50 hrp^e μM

O=[N+]([O-])c1cc(CN2CCN(c3ccccc3)CC2)c(O)c2ncccc12 [INP1750]
EC50 [17]: 12.4 µM | lowest known inhibitory concentration (∼), PA ([11]; ref [67], [68]): ∼80^c μM | MIC, Chlamydia [8, 68]: 25 MIC^c μM

C/C=C(\C)[C@H](O)[C@H](C)/C=C(C)/C=C/C/C(C)=C/Cc1nc(OC)c(OC)c(O)c1C [Piercidin A1]
lowest known inhibitory concentration (∼), YopM translocation [3]: ∼36; ∼9 YopM^f μM

C[n+]1cc2c3c(ccc2c2ccc4cc5c(cc4c21)OCO5)OCO3 [Sanguinarine chloride]
lowest known inhibitory concentration (∼), SipA ([9]; footnotes b and f: secretion assay and translocation assay, ref [88]): ∼5 SipA^b^f μM

Cc1ccc(S(=O)(=O)/C=C/C#N)cc1 [Bay 11-7082]
growth of SufI-β-lactamase Tat reporter bacteria in penicillin G / Tat inhibition, in words [10]: strongly reduced growth of bacteria

COc1cc(C(=O)O)ccc1O [Vanillic acid]
lowest known inhibitory concentration (∼), hrpA [16]: ∼2.5 mM hrpA^e

O=[N+]([O-])c1cc(CN2CCN(c3ccc(F)cc3)CC2)c(O)c2ncccc12 [INP1855]
EC50 [17]: 6.3 µM | lowest known inhibitory concentration (∼), PA ([11]; ref [67], [69]): ∼60^c μM | MIC, Chlamydia [8, 69]: 3.13 MIC^c μM
